Experimental data taken from patent publication US5795907A, “Gastin and CCK receptor ligands” (James Black Foundation Limited, priority 1994, dated 1998).

Key:
CCKB receptor = biological target: T1, CCKB receptor (Mus musculus, UniProt P56481); experiment: CCKB receptor radioligand binding assay in mouse cortical membranes ([125I]-CCK8S); details: [125I]-CCK8S 200 pM, 150 min at 21±3°; for Ki: read-out: CCKB pKi (converted)
T1 construct: The cortex was dissected, weighed and homogenised in 40ml ice-cold buffer; tissue Charles River (supplier of the CD1 mice); host or cells: cerebral cortex membranes of male CD1 mice
T1 sequence (P56481 1-453): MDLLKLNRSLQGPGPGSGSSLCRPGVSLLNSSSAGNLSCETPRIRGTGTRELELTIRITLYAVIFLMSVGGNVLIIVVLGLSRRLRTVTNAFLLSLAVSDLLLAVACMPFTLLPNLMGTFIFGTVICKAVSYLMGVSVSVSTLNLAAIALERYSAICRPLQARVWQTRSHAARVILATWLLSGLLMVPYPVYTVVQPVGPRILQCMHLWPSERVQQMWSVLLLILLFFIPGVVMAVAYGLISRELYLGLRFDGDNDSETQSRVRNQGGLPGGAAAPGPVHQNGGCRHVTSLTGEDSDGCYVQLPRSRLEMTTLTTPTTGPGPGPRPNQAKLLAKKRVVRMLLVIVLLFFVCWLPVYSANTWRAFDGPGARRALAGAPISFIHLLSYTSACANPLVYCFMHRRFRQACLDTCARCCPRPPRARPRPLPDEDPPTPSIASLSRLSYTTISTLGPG
Description: The compounds of the examples were tested for binding at the CCKB receptor in mouse cortical membranes by means of a radioligand binding assay. The procedure was as follows:
The whole brains from male mice (CD1 22-25 g; Charles River) were removed and placed in ice-cold buffer (pH7.2 @ 21±3°) of the following composition (mM); 10 HEPES, 130 NaCl, 4.7 KCl, 5 MgCl2, 1 EDTA and containing 0.25g.^-1 bacitracin. The cortex was dissected, weighed and homogenised in 40ml ice-cold buffer using a Teflon-in-glass homogeniser. The homogenate was centrifuged at 39,800g for 20 min at 4°, the supernatant discarded and the pellet resuspended by homogenisation in fresh buffer. The homogenate was recentrifuged (39,800 g; 20 min @ 4°) and the final pellet was resuspended in HEPES buffer to give a tissue concentration of 2 mg.ml^-1 (original wet weight).
The membranes ([…]) were incubated for 150 min at 21±3° in a final volume of 0.5 ml with HEPES buffer containing [^125 I]-CCK8S (0.05 ml; 200 pM NEN 2200 Ci.mmol^-1) and competing compound. Total and non-specific binding of [^125 I]-CCK8S were defined using 0.05 ml of buffer and 0.05 ml of […] L-365,260, respectively. The assay was terminated by rapid filtration through pre-soaked Whatman GF/B filters using a Brandell Cell harvester. The filters were washed (3×3 ml) with ice-cold 50 mM Tris-HCl (pH7.4 @ 4° C.) and bound radioactivity determined by counting (1 min.) in a gamma-counter.

CCKA = biological target: T2, CCKA (Cavia porcellus, UniProt Q63931); experiment: CCKA radioligand binding assay in guinea-pig pancreas membranes ([125I]-CCK8(S)); details: PD134,308 present, 150 minutes at 21±3°; for Ki: read-out: CCKA pKi (converted)
T2 construct: The pancreatata were homogenised in 40 ml ice-cold HEPES buffer using a polytron; from tissue; host or cells: pancreas membranes of male Dunkin Hartley guinea-pigs
T2 sequence (Q63931 1-430): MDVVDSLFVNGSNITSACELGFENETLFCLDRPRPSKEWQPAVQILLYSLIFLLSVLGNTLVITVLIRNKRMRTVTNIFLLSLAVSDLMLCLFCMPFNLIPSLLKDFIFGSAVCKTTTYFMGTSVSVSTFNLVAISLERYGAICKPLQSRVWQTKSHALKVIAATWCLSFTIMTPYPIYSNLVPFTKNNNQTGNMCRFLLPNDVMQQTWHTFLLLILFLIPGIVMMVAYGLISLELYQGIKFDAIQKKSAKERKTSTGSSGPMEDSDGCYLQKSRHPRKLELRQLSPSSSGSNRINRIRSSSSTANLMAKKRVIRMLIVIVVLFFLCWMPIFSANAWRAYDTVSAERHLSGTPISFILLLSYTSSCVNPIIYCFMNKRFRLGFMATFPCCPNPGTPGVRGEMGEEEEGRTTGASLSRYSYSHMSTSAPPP
Description: The compounds of the examples were also tested in a CCKA as follows:
The pancreatata were removed from male guinea-pigs (200-300 g; Dunkin Hartley) and placed in ice-cold HEPES buffer (pH 7.2 @ 21 ±3). The pancreatata were homogenised in 40 ml ice-cold HEPES buffer using a polytron (Brinkmann, PT10, setting 10) 4×1 second. The homogenate was centrifuged at 39,800 g for 15 min at 4°. The supernatant was discarded and the pellet re-suspended using a Teflon-in-glass homogeniser in 20 volumes of fresh buffer and re-centrifuged as above.
The final pellet was re-suspended using a Teflon-in-glass homogeniser to a tissue concentration of 1 mg.ml^-1 (original wet weight), and filtered through 500 μm pore-size Nytex mesh.
The membranes (400 μl; containing 0.375 μM PD134,308) are incubated for 150 minutes at 21±3° in a final volume of 0.5 ml with HEPES buffer containing [^125 I]-CCK8 (S) (50 μl; […]) and competing compound. Total and non-specific binding of [^125 I]-CCK8 (S) are defined using 50 μl of buffer and 50 μl of 100 nM L-364,718 respectively. The assay is terminated by rapid filtration through pre-soaked Whatman GF/B filters using a Brandell Cell Harvester. The filters were washed (3×3 ml) with ice-cold 50 mM Tris HCl (pH 7.4 at 4°) and bound radioactivity is determined by counting (1 min) in a gamma counter.

Ki (CCKB receptor) [nM] | Ki (CCKA) [nM] | CCKB pKi (CCKB receptor) | CCKA pKi (CCKA) | Molecule
1580 | > 10000 |  |  | Cc1nc2cc(C(=O)NCC34CC5CC(CC(C5)C3)C4)c(C(=O)N[C@@H](Cc3ccccc3)C(=O)Nc3cc(C(=O)O)cc(C(=O)O)c3)cc2[nH]1 [Example 111, 5-(1S-(3,5-dicarboxyphenylaminocarbonyl)-2-phenylethylaminocarbonyl)-6-(1-adamantanemethylaminocarbonyl)-2-methylbenzimidazole]
 |  | 6.3 | 5.7 | NS(=O)(=O)c1cc(NC(=O)[C@H](Cc2ccccc2)NC(=O)c2cc3cc[nH]c3cc2C(=O)NCC23CC4CC(CC(C4)C2)C3)cc(S(N)(=O)=O)c1 [Example 96, 5-(1S-(3,5-di-aminosulphonylphenylaminocarbonyl)-2-phenylethylaminocarbonyl)-6-(1-adamantanemethylaminocarbonyl)-indole]
200 | 7940 |  |  | O=C(O)c1cc(NC(=O)[C@@H]2Cc3ccccc3CN2C(=O)c2cc3[nH]cnc3cc2C(=O)NCC23CC4CC(CC(C4)C2)C3)cc(C(=O)O)c1 [Example 129, 5-(3S-(3,5-dicarboxyphenylaminocarbonyl)-1,2,3,4-tetrahydroisoquinolino-2-carbonyl)-6-(1-adamantanemethylaminocarbonyl)-benzimidazole]
63.1 |  |  |  | Nc1ccc(C[C@H](NC(=O)c2cc3[nH]cnc3cc2C(=O)NCC23CC4CC(CC(C4)C2)C3)C(=O)Nc2cc(C(=O)O)cc(C(=O)O)c2)cc1 [Example 64, 5-(1S-(3,5-dicarboxyphenylaminocarbonyl)-2-(4-aminophenyl)-ethylaminocarbonyl)-6-(1-adamantanemethylaminocarbonyl)-benzimidazole]
1000 | 2510 |  |  | COC(=O)[C@@H]1CCCN1C(=O)c1cc2ccccc2cc1C(=O)NCC12CC3CC(CC(C3)C1)C2 [Example 6, 2-(2S-methoxycarbonylpyrrolidino-carbonyl)-3-(1-adamantanemethylaminocarbonyl)-naphthalene]
2000 |  |  |  | O=C(O[C@H]1CO[C@@H](c2ccccc2)OC1)c1cc(NC(=O)[C@H](Cc2ccccc2)NC(=O)c2cc3cc[nH]c3cc2C(=O)NCC23CC4CC(CC(C4)C2)C3)cc(C(=O)O[C@H]2CO[C@@H](c3ccccc3)OC2)c1 [Example 106, 5-(1S-(3,5-di-(cis-4-phenyl-3,5-dioxacyclohexaneoxycarbonyl)-phenylaminocarbonyl)-2-phenylethylaminocarbonyl)-6-(1-adamantanemethyl-aminocarbonyl)-indole]
 |  | 7.1 | 6.1 | O=C(O)c1cc(NC(=O)[C@H](Cc2ccccc2)NC(=O)c2cc3ccn(S(=O)(=O)c4ccccc4)c3cc2C(=O)NCC23CC4CC(CC(C4)C2)C3)cc(C(=O)O)c1 [Example 45, 5-(1S-(3,5-dicarboxyphenylaminocarbonyl)-2-phenylethylaminocarbonyl)-6-(1-adamantanemethylamino-carbonyl)-N-phenylsulphonyl-indole]
 |  | 8.4 | 5.4 | O=C(NCC12CC3CC(CC(C3)C1)C2)c1cc2[nH]ccc2cc1C(=O)N[C@@H](Cc1ccccc1)C(=O)Nc1cccc(S(=O)(=O)NC(=O)C(F)(F)F)c1 [Example 99, 5-(1S-(3-trifluoroacetylaminosulphonylphenylaminocarbonyl)-2-phenylethylaminocarbonyl)-6-(1-adamantanemethylaminocarbonyl)-indole]
39.8 | 251 |  |  | O=C(NCC12CC3CC(CC(C3)C1)C2)c1cc2cc[nH]c2cc1C(=O)N[C@@H](Cc1ccccc1)C(=O)Nc1cccc(-c2nn[nH]n2)c1 [Example 101, 6-(1S-(3-tetrazolylphenylaminocarbonyl)-2-phenylethylaminocarbonyl)-5-(1-adamantanemethylaminocarbonyl)-indole]
 |  | 5.8 |  | 5-(1S-(3,5-diaminophenylaminocarbonyl)-2-phenylethylaminocarbonyl)-6-(1-adamantanemethyl-N-methylaminocarbonyl)-indole and regioisomer with substituents at positions 5 and 6 reversed [Example 43]
 |  | 8.1 |  | CC(=O)NS(=O)(=O)c1cccc(NC(=O)[C@H](Cc2ccccc2)NC(=O)c2cc3cc[nH]c3cc2C(=O)NCC23CC4CC(CC(C4)C2)C3)c1 [Example 138, 5-(1S-(3-acetylaminosulphonylphenylaminocarbonyl)-2-phenylethylaminocarbonyl)-6-(1-adamantanemethylaminocarbonyl)-indole]
 | 15800 |  |  | COC(=O)c1cc(NC(=O)[C@H](Cc2ccccc2)NC(=O)c2cc3ccccc3cc2C(=O)NCC23CC4CC(CC(C4)C2)C3)cc(C(=O)OC)c1 [Example 17, 2-(1S-(3,5-dimethoxycarbonyl-phenylamino-carbonyl)-2-phenylethylaminocarbonyl)-3-(1-adamantanemethylaminocarbonyl)-naphthalene]
398 |  |  |  | O=C(O)c1cc(NC(=O)[C@H](Cc2ccccc2)NC(=O)c2cc3cc[nH]c3cc2C(=O)NCC2CCC(O)CC2)cc(C(=O)O)c1 (single isomer, unassigned) [Example 110, 5-(1S-(3,5-dicarboxyphenylaminocarbonyl)-2-phenylethylaminocarbonyl)-6-(4-hydroxycyclohexanemethylaminocarbonyl)-indole]
 |  |  | 5.1 | CC(C)(C)C(=O)OCOC(=O)c1cc(NC(=O)[C@H](Cc2ccccc2)NC(=O)c2cc3ccoc3cc2C(=O)NCC23CC4CC(CC(C4)C2)C3)cc(C(=O)OCOC(=O)C(C)(C)C)c1 [Example 121, 5-(1S-(3,5-di-t-butylcarbonyloxymethyloxycarbonylphenylaminocarbonyl)-2-phenylethylaminocarbonyl)-6-(1-adamantanemethylaminocarbonyl)-benzofuran]
 | 501 |  |  | COC(=O)c1cc(NC(=O)[C@H](Cc2ccccc2)NC(=O)c2cc3ccccc3cc2C(=O)NCC23CC4CC(CC(C4)C2)C3)cc(C(=O)O)c1 [Example 18, 2-(1S-(3-methoxycarbonyl-5-carboxyphenylaminocarbonyl)-2-phenylethylaminocarbonyl)-3-(1-adamantanemethylaminocarbonyl)-naphthalene]

Molecule | Ki (CCKB receptor) [nM] | Ki (CCKA) [nM] | CCKB pKi (CCKB receptor) | CCKA pKi (CCKA)
5-(1S-(trans3,4-dimethoxycarbonylpyrrolidinocarbonyl)-2-phenylethylaminocarbonyl)-6-(1-adamantanemethylaminocarbonyl)-indole and regioisomer with substituents at positions 5 and 6 reversed [Example 49] |  |  | 5.6 | 5.6
